From US11051515B2, “3-acyl-benzamides and their use as herbicides” (Bayer Aktiengesellschaft, priority 2017, dated 2021)

What was measured:
[1] = system: SETVI; test: Pre-emergence action against SETVI; type: in vivo, Setaria viridis; settings: for pest or weed control at 320 g/ha: Setaria viridis, 504 h, pre-emergence, dosage 320 g/ha, scored visually after 3 weeks vs untreated controls, read-out: SETVI (Table B8, pre-emergence herbicidal activity)
Summary of the method: (§1)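 Seeds sown in sandy loam in wood-fiber pots and covered with soil. Greenhouse growth; visual damage scored after 3 weeks versus untreated controls (100% = dead, 0% = like control).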

[2] = system: AVEFA; test: Pre-emergence action against AVEFA; type: in vivo, Avena fatua; settings: Avena fatua, 504 h, dosage 320 g/ha, scored visually after 3 weeks vs untreated controls, read-out: Pre-emergence action against AVEFA (herbicidal activity)
Summary of the method: as §1

[3] = system: POLCO; test: Pre-emergence action against POLCO; type: in vivo, Polygonum convolvulus; settings: Fallopia convolvulus, 504 h; Dosage 320 g/ha, pre-emergence
Summary of the method: as §1

[4] = system: ABUTH; test: Post-emergence action against ABUTH; type: in vivo, Abutilon theophrasti; settings: Abutilon theophrasti, 504 h; post-emergence, dosage 80 g/ha, visual assessment about 3 weeks after treatment vs untreated controls; read-out: Post-emergence action against ABUTH (herbicidal action in percent)
Summary of the method: (§2)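 Weeds grown in sandy loam in greenhouse, treated at one-leaf stage (2–3 weeks after sowing) with WP or EC formulations sprayed as aqueous suspension/emulsion at 600 to […] water with 0.2% wetting agent. Visual rating after about 3 weeks versus untreated controls, as % herbicidal action (100% = plants dead, 0% = like control).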

[5] = system: ECHCG; test: Post-emergence action against ECHCG; type: in vivo, Echinochloa crus-galli; settings: Echinochloa crus-galli, 504 h; post-emergence, dosage 80 g/ha, visual assessment about 3 weeks after treatment vs untreated controls; read-out: Post-emergence action against ECHCG (herbicidal action in percent)
Summary of the method: as §2

[6] = system: MATIN; test: Pre-emergence action against MATIN; type: in vivo, Matricaria inodora; settings: for pest or weed control at 320 g/ha: Tripleurospermum inodorum, 504 h, Dosage 320 g/ha, pre-emergence
Summary of the method: as §1

[7] = system: PHBPU; test: Pre-emergence action against PHBPU; type: in vivo, Pharbitis purpurea; settings: Ipomoea purpurea, 504 h; Dosage 320 g/ha, pre-emergence
Summary of the method: as §1

[8] = system: STEME; test: Post-emergence action against STEME; type: in vivo, Stellaria media; settings: Stellaria media, 504 h; post-emergence, dosage 80 g/ha
Summary of the method: as §2

[9] = system: VERPE; test: Pre-emergence action against VERPE; type: in vivo, Veronica persica; settings: for pest or weed control at 320 g/ha: Veronica persica, 504 h, Dosage 320 g/ha, pre-emergence
Summary of the method: as §1

[10] = system: ABUTH; test: Pre-emergence action against ABUTH; type: in vivo, Abutilon theophrasti; settings: for pest or weed control at 320 g/ha: Abutilon theophrasti, 504 h, pre-emergence, dosage 320 g/ha, scored visually after 3 weeks vs untreated controls, read-out: Pre-emergence action against ABUTH (herbicidal activity)
Summary of the method: as §1

[11] = system: VIOTR; test: Pre-emergence action against VIOTR; type: in vivo, Viola tricolor; settings: for pest or weed control at 320 g/ha: Viola tricolor, 504 h, Dosage 320 g/ha, pre-emergence
Summary of the method: as §1

[12] = system: ALOMY; test: Post-emergence action against ALOMY; type: in vivo, Alopecurus myosuroides; settings: for pest or weed control at 80 g/ha: Alopecurus myosuroides, 504 h, Dosage 80 g/ha, post-emergence
Summary of the method: as §2

[13] = system: AVEFA; test: Post-emergence action against AVEFA; type: in vivo, Avena fatua; settings: for pest or weed control at 80 g/ha: Avena fatua, 504 h, post-emergence, dosage 80 g/ha, visual assessment about 3 weeks after treatment vs untreated controls, read-out: Post-emergence action against AVEFA (herbicidal action in percent)
Summary of the method: as §2

[14] = system: VERPE; test: Post-emergence action against VERPE; type: in vivo, Veronica persica; settings: Veronica persica, 504 h, dosage 80 g/ha
Summary of the method: as §2

[15] = system: CYPES; test: Post-emergence action against CYPES; type: in vivo, Cyperus esculentus; settings: for pest or weed control at 80 g/ha: Cyperus esculentus, 504 h, post-emergence, dosage 80 g/ha, visual assessment about 3 weeks after treatment vs untreated controls, read-out: Post-emergence action against CYPES (herbicidal action in percent)
Summary of the method: as §2

[16] = system: ALOMY; test: Pre-emergence action against ALOMY; type: in vivo, Alopecurus myosuroides; settings: for pest or weed control at 320 g/ha: Alopecurus myosuroides, 504 h, dosage 320 g/ha, pre-emergence, scored visually after 3 weeks vs untreated controls, 100% = plants have died, 0% = like control plants, read-out: Pre-emergence action against ALOMY (herbicidal activity in percent)
Summary of the method: as §1

[17] = system: MATIN; test: Post-emergence action against MATIN; type: in vivo, Matricaria inodora; settings: for pest or weed control at 80 g/ha: Tripleurospermum inodorum, 504 h, post-emergence, dosage 80 g/ha, visual assessment about 3 weeks after treatment vs untreated controls, read-out: Post-emergence action against MATIN (herbicidal action in percent)
Summary of the method: as §2

[18] = system: AMARE; test: Pre-emergence action against AMARE; type: in vivo, Amaranthus retroflexus; settings: for pest or weed control at 320 g/ha: Amaranthus retroflexus, 504 h, pre-emergence, dosage 320 g/ha, scored visually after 3 weeks vs untreated controls, read-out: Pre-emergence action against AMARE (herbicidal activity)
Summary of the method: as §1

[19] = system: ECHCG; test: Pre-emergence action against ECHCG; type: in vivo, Echinochloa crus-galli; settings: for pest or weed control at 320 g/ha: Echinochloa crus-galli, 504 h, pre-emergence, dosage 320 g/ha, scored visually after 3 weeks vs untreated controls, read-out: Pre-emergence action against ECHCG (herbicidal activity)
Summary of the method: as §1

[20] = Table V2, pre-emergence, 20 g of a.i./ha
[21] = Table V3, pre-emergence, 80 g of a.i./ha
[22] = Table V15, post-emergence, 5 g of a.i./ha

SMILES | pest or weed control at 320 g/ha [1] [%] | pest or weed control at 320 g/ha [2] [%] | pest or weed control at 320 g/ha [3] [%] | pest or weed control at 80 g/ha [4] [%] | pest or weed control at 80 g/ha [5] [%] | pest or weed control at 320 g/ha [6] [%] | pest or weed control at 320 g/ha [7] [%] | pest or weed control at 80 g/ha [8] [%] | pest or weed control at 320 g/ha [9] [%] | pest or weed control at 320 g/ha [10] [%] | pest or weed control at 320 g/ha [11] [%] | pest or weed control at 80 g/ha [12] [%] | pest or weed control at 80 g/ha [13] [%] | pest or weed control at 80 g/ha [14] [%] | pest or weed control at 80 g/ha [15] [%] | pest or weed control at 320 g/ha [16] [%] | pest or weed control at 80 g/ha [17] [%] | pest or weed control at 320 g/ha [18] [%] | pest or weed control at 320 g/ha [19] [%] | further results
CSc1c(C(=O)Nc2nnnn2C)ccc(C(F)(F)F)c1C(C)=O [1-58] | 100 | 100 | 100 | 100 | 100 | 100 | 100 | 100 | 100 | 100 | 100 | 90 | 100 | 100 | 90 | 100 | 100 | 100 | 100 | –
CSc1c(C(=O)Nc2nnnn2C)ccc(C(F)(F)F)c1C(=O)C1CC1 [1-60] | 100 | 100 | 100 | 90 | 100 | 100 | 100 | 100 | 100 | 100 | 100 | 100 | 100 | 100 | 90 | 100 | 100 | 100 | 100 | –
CSc1c(C(=O)Nc2nnnn2C)ccc(C(F)F)c1C(=O)C1CC1 [1-67] | 100 | 80 | 100 | 100 | 100 | 100 | 100 | 100 | 100 | 100 | 100 | 100 | 100 | 100 | 90 | 100 | 100 | 100 | 100 | –
Cn1nnnc1NC(=O)c1ccc(S(C)(=O)=O)c(C(=O)C2CC2)c1Cl [1-129] | 100 | 100 | 80 | 90 | 90 | 100 | 100 | 100 | 100 | 100 | 100 | 100 | 100 | 100 | 80 | 100 | 90 | 100 | 100 | SETVI [1, 20]: 90; MATIN [6, 20]: 90; Herbicidal efficacy against MATIN [6, 21]: 100; VERPE [9, 20]: 100; Herbicidal efficacy against ABUTH [10, 21]: 100; Herbicidal efficacy against VIOTR [11, 21]: 100; Herbicidal efficacy against ALOMY [12, 22]: 70; Herbicidal efficacy against AVEFA [13, 22]: 60; Herbicidal efficacy against CYPES [15, 22]: 60; Herbicidal efficacy against ALOMY [16, 21]: 100; Herbicidal efficacy against MATIN [17, 22]: 80; AMARE [18, 20]: 90; Herbicidal efficacy against AMARE [18, 21]: 100; ECHCG [19, 20]: 90; Herbicidal efficacy against ECHCG [19, 21]: 100
